2 compounds from patent publication US20210275624A1, “TREATMENTS FOR IMPROVING OR LESSENING IMPAIRMENT OF MITOCHONDRIAL FUNCTION” (priority 2020, published 2021) can be followed below.

Data set [1] concerns human RPE cells. The data set can be described thus: WST assay (mitochondrial dehydrogenase activity / cell viability). In kind it is cell-based. As to conditions: 2.5 hours. As for the experimental part: Human donor RPE cells were seeded on collagen-coated 96-well plates, 24-well plates with or without coverslips, 6-well plates (Corning-Costar Incorporated, Corning, N.Y., USA). Except for the Seahorse assay, on day 6 after plating, cells were washed twice with serum-free and phenol red-free MEM (SF-MEM), treated with HQ at a various concentrations in the presence or absence of RSG (0.4 mM) in SF-MEM for various times at 37° C. RSG co-treatment refers to the condition in which cells were treated with RSG in the presence of HQ. Control refers to the condition in which cells were not treated. RPE cells in triplicate wells of a 96-well plate were treated with HQ (150 μM) for 2.5 hours in the presence or absence of RSG (0.4 mM). The medium was removed and cells were incubated with WST-1 solution for 30 minutes at 37° C. A colorimetric assay was performed based on the cleavage of the tetrazolium salt WST-1 by mitochondrial dehydrogenases in viable cells. The plate was read on a spectrophotometer at 440 nm with a reference wavelength at 690 nm.

Data set [2] deals with human RPE cells. Briefly: Determination of Δψm (JC-1 dye). It is filed as cell-based. As for the experimental part:
Human donor RPE cells were seeded on collagen-coated 96-well plates, 24-well plates with or without coverslips, 6-well plates (Corning-Costar Incorporated, Corning, N.Y., USA). Except for the Seahorse assay, on day 6 after plating, cells were washed twice with serum-free and phenol red-free MEM (SF-MEM), treated with HQ at a various concentrations in the presence or absence of RSG (0.4 mM) in SF-MEM for various times at 37° C. RSG co-treatment refers to the condition in which cells were treated with RSG in the presence of HQ. Control refers to the condition in which cells were not treated. RPE cells in triplicate wells of 96-well black plates with clear bottoms were washed with SF-MEM, loaded with 10 μM JC-1 dye in SF-MEM for 30 minutes at 37° C. and then washed twice. Cells were then treated with HQ (160 μM) with or without RSG (0.4 mM). A fluorescence plate reader was used to measure the fluorescence at various times to quantify green JC-1 monomer (490-nm excitation, 522-nm emission) and red JC-1 aggregates (535-nm excitation, 590-nm emission).

The next data set deals with dog heart failure model. The data set can be described thus: Dog heart failure model (coronary microembolization), ventriculographic and hemodynamic measurements. In kind it is in vivo. The note with it: for Left Ventricle Ejection Fraction: n = 3, pretreatment 32; for Cardiac Output, Δ vs pretreatment / Left Ventricle Ejection Fraction, Δ vs pretreatment / Stroke Volume, Δ vs pretreatment / Cardiac Output / Mean Pulmonary Artery Wedge Pressure / L V End Diastolic Pressure / Mean Pulmonary Artery Pressure / Stroke Volume / L V End Systolic Volume / L V End Diastolic Volume / Mean Aortic Pressure / Heart Rate / Systemic Vascular Resistance / L V Peak + dP/dt: post 3rd inj.; for Cardiac Output: pretreatment 1.81; for Mean Pulmonary Artery Wedge Pressure: pretreatment 9.3; for L V End Diastolic Pressure: pretreatment 13; for Mean Pulmonary Artery Pressure: pretreatment 17; for Stroke Volume: pretreatment 21; for L V End Systolic Volume: pretreatment 43; for L V End Diastolic Volume: pretreatment 64; for Mean Aortic Pressure: pretreatment 75; for Heart Rate: pretreatment 88; for Systemic Vascular Resistance: pretreatment 3391. As for the experimental part: An initial study was conducted to assess the effects of Risuteganib administered intravenously at doses of 1.0 mg/kg and 5.0 mg/kg in a dog heart failure model. The subject animals underwent coronary microembolization to induce heart failure as described in Sabbah, H., et al.; Chronic Therapy with Elamipretide (MTP-131), a Novel Mitochondria-Targeting Peptide, Improves Left Ventricular and Mitochondrial Function in Dogs with Advanced Heart Failure; Circ Heart Fail. 2016 February; 9(2): e002206. doi:10.1161/CIRCHEARTFAILURE.115.002206.
Three (3) dogs were received 1.0 mg/kg Risuteganib every 2 weeks for 6 weeks. After an intervening period of approximately one week, the same three (3) dogs then received 5.0 mg/kg Risuteganib every 2 weeks for 6 additional weeks. Ventriculographic and hemodynamic measurements were made prior to the first intravenous dose of Risuteganib, after the third biweekly 1.0 mg/kg intravenous dose of Risuteganib and again after the third biweekly 5.0 mg/kg intravenous dose of Risuteganib.

Data set [3] relates to human RPE cells. It is filed as cell-based. The note with it: RSG 0.4 mM co-treatment with HQ 175 μM, 1.5 hours, vs HQ-treated cells. As for the experimental part: RPE cells were seeded in triplicate wells of collagen-coated XF 24-well plates and grown for 24 hours. RPE cells that had just reached confluence were washed with SF-MEM and treated for 1.5 hours with HQ (175 μM) with or without RSG (0.4 mM). Media were removed and cells were washed with XF base medium containing 1 mM sodium pyruvate, 2 mM glutamine and 8 mM glucose, pH 7.4. The cells were incubated for 1 hour at 37° C. in a C02-free incubator. Oxygen consumption rate (OCR) was measured by Seahorse XFe24 flux analyzer under basal conditions followed by the sequential addition of 1 μM oligomycin, 1 μM tri-fluorocarbonylcyanide phenylhydrazone (FCCP), and 1 μM rotenone and antimycin A. Maximal OCR was the difference in OCR between FCCP-induced respiration and OCR after injection of antimycin A. Mitochondrial spare respiratory capacity was the difference between maximal respiration and basal OCR. Media were removed and the total proteins were extracted for BCA protein assay after OCR measurements. OCRs were normalized to total protein content.

In data set [4] the test system is human RPE cells. Briefly: Determination of ROS (CM-H2DCFDA fluorescence). As to conditions: HQ 160 μM vs control. In kind it is cell-based. As for the experimental part:
Human donor RPE cells were seeded on collagen-coated 96-well plates, 24-well plates with or without coverslips, 6-well plates (Corning-Costar Incorporated, Corning, N.Y., USA). Except for the Seahorse assay, on day 6 after plating, cells were washed twice with serum-free and phenol red-free MEM (SF-MEM), treated with HQ at a various concentrations in the presence or absence of RSG (0.4 mM) in SF-MEM for various times at 37° C. RSG co-treatment refers to the condition in which cells were treated with RSG in the presence of HQ. Control refers to the condition in which cells were not treated. RPE cells in triplicate wells of a 96-well black plates with clear bottoms were washed with SF-MEM, loaded with 20 μM CM-H2DCFDA in SF-MEM for 30 minutes at 37° C. and then washed twice. Cells were then treated with HQ (160 μM) in the presence or absence of RSG (0.4 mM). Fluorescence was measured at various times with a fluorescence plate reader (490 nm excitation, 522 nm emission).

Setting [5] is: 1.0 mg/kg IV q 2 weeks for 6 weeks.
The mark [6] stands for this setting: 5.0 mg/kg IV q 2 weeks for 6 weeks.

Square brackets hold non-standard residues; d marks the D form. Peptide text beside a SMILES is read from it. Cya = N[C@@H](CS(=O)(=O)O)C(=O)O

Take `C[C@@H](O)[C@H](NC(=O)[C@H](CS(=O)(=O)O)NC(=O)CNC(=O)[C@H](CCCNC(=N)N)NC(=O)CN)C(=O)N1CCC[C@H]1C(=O)O` [Risuteganib, Glycyl-L-arginylglycyl-3-sulfo-L-alanyl-L-threonyl-L-proline] (H-GRG[Cya]TP-OH): in the data set on human RPE cells [1] (RSG 0.4 mM co-treatment with HQ 150 μM, vs HQ alone), the “cell viability (WST-1, mitochondrial dehydrogenase activity)” value is “significantly increased cell viability”. In the data set with human RPE cells [2] (RSG 0.4 mM co-treatment with HQ 160 μM), the “Δψm (mitochondrial membrane potential)” value is listed as “significantly improved HQ-mediated reduction in Δψm”. Also, the “Left Ventricle Ejection Fraction” value in the data set with dog heart failure model (1.0 mg/kg IV q 2 weeks for 6 weeks, post 3rd 1.0 mg/kg IV inj.) was determined as 37%. In addition, in the data set with dog heart failure model (setting [5]), the “Cardiac Output, Δ vs pretreatment” value is “Δ = +0.14 L/min”; the “Left Ventricle Ejection Fraction, Δ vs pretreatment” value was “Δ = +5%”; the “Stroke Volume, Δ vs pretreatment” value is given as “Δ = +2 mL”; the “Cardiac Output” value stood at 1.95 L/min. Also, in the data set on dog heart failure model (setting [5]), the “Mean Pulmonary Artery Wedge Pressure” value worked out at 9.0 mmHg, the “L V End Diastolic Pressure” value came out at 13 mmHg, the “Mean Pulmonary Artery Pressure” value worked out at 16 mmHg and the “Stroke Volume” value is 23 mL. In the data set with dog heart failure model (setting [5]), the “L V End Systolic Volume” value worked out at 0.04 L, the “L V End Diastolic Volume” value turned out to be 0.063 L, the “Mean Aortic Pressure” value worked out at 71 mmHg and the “Heart Rate” value is reported as 86 beats/min. Also, the “Systemic Vascular Resistance” value in the data set on dog heart failure model (setting [5]) came to 2954 dynes-sec-cm-5. The “Left Ventricle Ejection Fraction” value in the data set on dog heart failure model (5.0 mg/kg IV q 2 weeks for 6 weeks, post 3rd 5.0 mg/kg IV inj.) amounted to 41%. Further, in the data set with dog heart failure model (setting [6]), the “Cardiac Output, Δ vs pretreatment” value was “Δ = +0.57 L/min”; the “Left Ventricle Ejection Fraction, Δ vs pretreatment” value is “Δ = +9%”; the “Stroke Volume, Δ vs pretreatment” value was “Δ = +5 mL”; the “Cardiac Output” value was found to be 2.38 L/min. Further, in the data set with dog heart failure model (setting [6]), the “Mean Pulmonary Artery Wedge Pressure” value came out at 9.0 mmHg, the “L V End Diastolic Pressure” value was 13 mmHg, the “Mean Pulmonary Artery Pressure” value was found to be 16 mmHg and the “Stroke Volume” value amounted to 27 mL. In the data set on dog heart failure model (setting [6]), the “L V End Systolic Volume” value amounted to 0.039 L, the “L V End Diastolic Volume” value came out at 0.067 L, the “Mean Aortic Pressure” value was 84 mmHg and the “Heart Rate” value was found to be 87 beats/min. Also, the “Systemic Vascular Resistance” value in the data set on dog heart failure model (setting [6]) worked out at 2924 dynes-sec-cm-5. For the same compound, the “L V Peak + dP/dt” value in the data set with dog heart failure model (first line so headed (r26), 1.0 mg/kg IV q 2 weeks for 6 weeks, pretreatment 1241) stood at 1267 mmHg/sec. Further, in the data set on dog heart failure model (first line so headed (r26), 5.0 mg/kg IV q 2 weeks for 6 weeks, pretreatment 1241), the “L V Peak + dP/dt” value worked out at 1288 mmHg/sec. For the same compound, the cardiac function entry in the data set on dog heart failure model (heart failure dogs, 1.0 mg/kg and 5.0 mg/kg intravenously) is “improved”. The “L V Peak + dP/dt” value with dog heart failure model (second line so headed (r29), 1.0 mg/kg IV q 2 weeks for 6 weeks, pretreatment 1509) stood at 1325 mmHg/sec. For the same compound, the “L V Peak + dP/dt” value in the data set on dog heart failure model (second line so headed (r29), 5.0 mg/kg IV q 2 weeks for 6 weeks, pretreatment 1509) stood at 1338 mmHg/sec. In addition, in the data set with human RPE cells [3], the ATP production result is given as “significantly increased” and the spare respiratory capacity entry is given as “significantly increased”.

On to `Oc1ccc(O)cc1` [HQ, hydroquinone, reference compound], for which, in the data set on human RPE cells [1] (HQ 150 μM), the “cell viability (WST-1)” value is recorded as “significantly decreased cell viability”. In the data set on human RPE cells [2] (HQ 160 μM vs control), the Δψm result is recorded as “significantly decreased”. The ROS production result in the data set on human RPE cells [4] is “significantly increased”.
